Measurements published in patent US11452309B2, “Formula of preparations for oral and/or enteral feeding of children” (priority 2017, dated 2022).
≈ marks a conversion by molar mass, not a printed value. Counter-ions that a name gives are not always drawn. Like-named read-outs stand apart in the source and are kept apart here.

Columns and labels:
[1] = cited from earlier work
[2] = Solubility of kynurenic acid and its sodium salt; format: physicochemical; conditions: water, converted from 100 mM, read-out: solubility in water, corresponding value

| solubility [2] | SMILES | solubility in 1.0 M NaOH ([1]; alkaline conditions, 1.0 M NaOH) | solubility in water [1] | solubility in water ([1]; sodium salt) |
| --- | --- | --- | --- | --- |
| – | O=C(O)c1cc(=O)c2ccccc2[nH]1 [kynurenic acid] | 50 mg/mL (≈ 264 mM) | 0.95 mg/mL | – |
| 21 mg/mL | O=C(O)c1cc(=O)c2ccccc2[nH]1 [sodium salt] | – | – | 100 mM |
